From patent US20060159780A1, “Prevention and amelioration of acetaminophen toxicity with tea melanin” (National Chiao Tung University, priority 2005, published 2006)

Columns and labels:
ICR mice = assay: Toxicity of NAPAP in mice: mortality and behaviour; format: in vivo
Method: (§1) Adult male ICR mice (30±5 g) were employed for all experiments. Animals were housed under controlled condition (25±2° C.) and 12 h light/dark cycle, and allowed free access to food and water, but fasted overnight before treatment. Animals were divided into several groups including control group (not receiving any treatment), negative control (receiving TSM alone), positive control (receiving only NAPAP), and experimental groups receiving NAPAP and TSM together. Each experimental group consisted of 6 mice. NAPAP was dissolved in normal saline (pH 7.4) and administered inraperitonially (i.p.) with a dose of 400 mg/kg. TSM was dissolved in distillate water at pH 7.2 and administered i.p. with doses of 10, 20, 30, or 40 mg/kg 2 h before intoxication. All animals were sacrificed by ether anesthesia 24 h after the NAPAP exposure. Blood samples were withdrawn by cardiac puncture for determination of alanine aminotransferase (ALT) activity using commercially available kit (Sigma 505-P). Liver was isolated and perfused with normal saline to wash out the blood. It was then used for determination of GSH, oxidized glutathione (GSSG), superoxide dismutase (SOD), thiobarbituric acid reactive substances (TBARS), and reduced forms of coenzymes Q9 (CoQ9) and Q10 (CoQ10).
The behavior of the animals in experimental group resembled the control group by movement activity. […]

[1] = system: alanine aminotransferase (ALT) activity; assay: Alanine aminotransferase (ALT) activity in blood of NAPAP-intoxicated mice; format: in vivo; conditions: NAPAP 400 mg/kg i.p. alone; 24 h of exposure; mean ± SEM
Method: as §1

hepatic GSH = assay: Hepatic GSH assay; format: in vivo, mice
Method: as §1, with “Blood samples were withdrawn by cardiac puncture for determination of alanine aminotransferase (ALT) activity using commercially available kit (Sigma 505-P). Liver was isolated and perfused with normal saline to wash out the blood. It was then used for determination of GSH, oxidized glutathione (GSSG), superoxide dismutase (SOD), thiobarbituric acid reactive substances (TBARS), and reduced forms of coenzymes Q9 (CoQ9) and Q10 (CoQ10).” left out
(§2) Frozen liver tissue was homogenized in 5% trichloroacetic acid (TCA) supplemented with 5 mM EDTA under a stream of nitrogen gas, then centrifuged at 20,000 g for 10 min at 4° C. […] The total hepatic glutathione level representing the sum of GSH and GSSG was determined using dithiobis-2-nitrobenzoic acid (Griffith, O. W. Anal. Biochem. 1980, 106, 207-212). The GSSG level was determined after elimination of GSH by reaction with 2-vinylpyridine, and the actual GSH level was calculated by subtracting the GSSG level from the total glutathione.

[2] = system: oxidized glutathione (GSSG); assay: Hepatic GSSG assay; format: in vivo, mice; conditions: NAPAP 400 mg/kg i.p. alone; liver, 24 h; mean ± SEM
Method: as §1, with “Blood samples were withdrawn by cardiac puncture for determination of alanine aminotransferase (ALT) activity using commercially available kit (Sigma 505-P). Liver was isolated and perfused with normal saline to wash out the blood. It was then used for determination of GSH, oxidized glutathione (GSSG), superoxide dismutase (SOD), thiobarbituric acid reactive substances (TBARS), and reduced forms of coenzymes Q9 (CoQ9) and Q10 (CoQ10).” left out
as §2

[3] = system: superoxide dismutase (SOD); assay: Superoxide dismutase assay in mouse liver; format: in vivo, mice; conditions: NAPAP alone, FIG. 2
Method: as §1, with “Blood samples were withdrawn by cardiac puncture for determination of alanine aminotransferase (ALT) activity using commercially available kit (Sigma 505-P). Liver was isolated and perfused with normal saline to wash out the blood. It was then used for determination of GSH, oxidized glutathione (GSSG), superoxide dismutase (SOD), thiobarbituric acid reactive substances (TBARS), and reduced forms of coenzymes Q9 (CoQ9) and Q10 (CoQ10).” left out
Determination of superoxide dismutase activity in mouse liver was based on inhibition of nitrite formation in reaction of oxidation of hydroxylammonium with superoxide anion radical (Elstner, E. F. and Heupel, A. Anal. Biochem. 1976, 70, 616-620). […] Optical absorbance at 530 nm was measured with Ultrospec III spectrophotometer (Pharmacia, LKB). The results were expressed as units of SOD activity calculated per milligram of protein.

CoQ9 = assay: Coenzymes Q assay in liver: CoQ9; format: in vivo, mice; conditions: NAPAP 400 mg/kg itself, FIG. 3
Method: as §1, with “It was then used for determination of GSH, oxidized glutathione (GSSG), superoxide dismutase (SOD), thiobarbituric acid reactive substances (TBARS), and reduced forms of coenzymes Q9 (CoQ9) and Q10 (CoQ10).” left out
(§3) Determination of reduced forms of CoQ9 and CoQ10 was carried out by the method of Ikenoya et al. (Ikenoya, S. et al., Chem Pharm Bull. 1981, 29, 158-164). […] The extract was analyzed using HPLC with Jasco 840 EC detector and Chemosorb ODS-H column (4.6×250 mm). […]

CoQ10 = assay: Coenzymes Q assay in liver: CoQ10; format: in vivo, mice; conditions: NAPAP 400 mg/kg itself, FIG. 3
Method: as §1, with “It was then used for determination of GSH, oxidized glutathione (GSSG), superoxide dismutase (SOD), thiobarbituric acid reactive substances (TBARS), and reduced forms of coenzymes Q9 (CoQ9) and Q10 (CoQ10).” left out
as §3

[4] = system: antibody-forming cells (AFC) of splenocytes; assay: Antibody-producing response (AFC plaque assay) after SRBC sensitization; format: in vivo; conditions: NAPAP 400 mg/kg i.p.; SRBC-sensitized ICR mice
Method: Experiments were performed on 10 groups of intact ICR mice consisting of 4 animals each. The first 5 groups were injected i.p. with the following single doses of TSM: 0, 10, 20, 30, and 40 mg/kg. The second 5 groups were injected similarly to the first groups with TSM, but after 2 h animals were again injected (i.p.) with 400 mg/kg NAPAP. One day after administration of TSM or TSM+NAPAP, mice were injected into the tail vein with 1×10^8 sheep red blood cells (SRBC) prepared in 0.2 mL of saline. An additional 4 animals received only SRBC (antigen control). Four days after their sensitization with SRBC, animals were sacrificed, and their spleens were removed. Single splenocytes were prepared from each spleen in 5 mL of RPMI-1640 media. Enumeration of the antibody-forming cells (AFC) was performed using a plaque assay (Jerne, N. K. and Nordin, A. A. Science 1963, 140, 405). AFC values were calculated for 10^6 splenocytes.

SMILES: CC(=O)Nc1ccc(O)cc1 [NAPAP, N-Acetyl-p-aminophenol]
- Animal lethality (ICR mice; NAPAP 400 mg/kg administered alone): 66%
- Mortality (dead/total) (ICR mice; NAPAP 400 mg/kg i.p. alone, 24 h of exposure): 2/6
- ALT [1]: 2043 U/L
- GSH (hepatic GSH; NAPAP 400 mg/kg i.p. alone, liver, 24 h, mean ± SEM): 13 ± 1 nmol/mg prot.
- depletion of GSH level as compared to control (hepatic GSH; NAPAP alone, 24 h after administration): 2.6 fold
- GSSG [2]: 3.2 ± 0.4 nmol/mg prot.
- decrease of SOD activity as compared to control [3]: ~4 fold
- content of CoQ9 diminished, compared to negative control (CoQ9): 60%
- coenzyme Q10 content diminished, compared to negative control (CoQ10): 55%
- suppression of AFC against the antigen control level [4]: 26%
